In paper PMC10518255, “A first-in-class pan-lysyl oxidase inhibitor impairs stromal remodeling and enhances gemcitabine response and survival in pancreatic cancer” (Nature Cancer, 2023):
Values joined by “and” are separate entries in the source; they are usually repeats but may differ in a detail not shown here. Identical values can stand only once.

Key:
[1] = system: lysyl oxidase family members in KPC CAFs; assay: qRT-PCR of lysyl oxidase family members after treatment (Extended Data Figs. 2d, 3h); type: cell-based, mouse; design: qRT-PCR LOX (Ct) / qRT-PCR LOX ΔCt / qRT-PCR LOX ΔΔCt KPC CAF / qRT-PCR LOXL1 ΔCt / qRT-PCR LOXL1 ΔΔCt KPC CAF / qRT-PCR LOXL2 ΔCt / qRT-PCR LOXL2 ΔΔCt KPC CAF / qRT-PCR LOXL3 ΔCt / qRT-PCR LOXL3 ΔΔCt KPC CAF / qRT-PCR LOXL4 ΔCt / qRT-PCR LOXL4 ΔΔCt KPC CAF: dose or concentration left out as unconfirmed;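 on qRT-PCR LOX ΔCt: 30 µM PXS-5505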;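 on qRT-PCR LOXL2 ΔCt: 30 µM PXS-5505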;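 on qRT-PCR LOXL3 ΔCt: 30 µM PXS-5505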;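 on qRT-PCR LOXL4 ΔCt: 30 µM PXS-5505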
Experimental: RNA was isolated using the RNeasy mini kit (QIAGEN) according to the manufacturer’s instructions. Then, 1 μg of RNA was reverse transcribed using the Transcriptor First Strand cDNA Synthesis kit (Roche LifeScience) with anchored-oligo(dT)18 primers or the QuantiTect Reverse Transcription kit (QIAGEN). Real-time PCR was performed using the Roche LightCycler480 (Roche LifeScience) or QuantStudio 7 (Thermo Fisher). The following probe sets from Applied Biosystems, were used: LOX, Mm00495386; LOXL1, Mm01145738; LOXL2, Mm00804740; LOXL3, Mm01184867; LOXL4, Mm00446385; and GAPDH, Mm99999915. Primers and Roche Universal Probe Library probes used for RT–qPCR are described in Supplementary Table 4. Relative mRNA expression levels for each transcript of interest were normalized to GAPDH or ACTB (as indicated) and quantified using the comparative double ΔCt method (unless stated otherwise) for each biological replicate.
Extended Data Fig. 2 Characterization of cells derived from the KPC autochthonous model. a. Immunofluorescence staining of KPC CCs and KPC CAFs for the pancreatic epithelial cell marker CDH1 (green), DAPI (blue) and for the CAF marker α-SMA (yellow), DAPI (blue). Representative images from n = 3 biological independent samples. Scale bar = 30 μm. b. RNAseq reads for CAF and epithelial cell makers in KPC CAFs n = 3 biological independent samples. […] Data is presented as mean values ± SEM. […] Data presented as mean values +/− SD. […] Source data
Data presented as mean values +/− SD. f. […] Data presented as mean values +/− SD. […] Data presented as mean values +/− SD. […] Data presented as mean values +/− SD. Ordinary one-way ANOVA for multiple comparison test performed. Source data

TKCC10 human PDX tumors = assay: TKCC10 human model, FITC-dextran perfusion (Extended Data Fig. 5f); type: in vivo, mouse; settings: for FITC-dextran (10 kDa) signal quantification: Extended Data 5F, human PDXs, individual FOV
Experimental: Subcutaneous PDX studies were performed by implanting early passage PDX pieces (~4 mm^3) or TKCC10 CCs (1.5 × 10^6 cells per mouse in 100 μl PBS/Matrigel 1:1) into female (PDX) or male (TKCC10) 8-week-old immunocompromised nude Balb/c-Fox1nuAusb mice subcutaneously on the left flank. For the duration of the study, mice were kept in conventional caging with environmental enrichment, access to standard chow, water ad libitum and 12-h light–dark cycle at ambient temperature and humidity. Treatment began when tumors reached 150 mm^3, where each mouse was randomized into a treatment group and administered gemcitabine HCl (100 mg kg^−1 in saline) (Jomar Life Research) or vehicle control (0.9% saline) by i.p. injection twice weekly on day 2 and 4 of the treatment cycle until an ethical end point was reached. These included maximal tumor mass ≥10% of body weight, weight loss ≥20% from maximum body weight or tumor interfering with mobility and affecting access to food and water. […] Tumor size was monitored every second day by calipers. Tumor volume was calculated using the formula (length × width^2)/2. […]
FITC-dextran (10 kDa) was administered at 40 mg ml^−1 in saline via tail vain 2 h before culling. […] Images were quantified using Fiji Software for Integrated Density Signal.
Extended Data Fig. 5 PXS-5505 in combination with gemcitabine in vivo. a. […] Signal is defined as the enzyme activity in the aorta, while noise is measured in the presence of a high concentration (300 µM) BAPN to abolish any lysyl oxidase family activity. […] FITC-dextran (molecular weight: 10 kDa) signal quantification from KPC tumor end point from each treatment group (vehicle n = 3 biologically independent animals, PXS-5505 n = 5 biologically independent animals, Gem n = 5 biologically independent animals, PXS-5505 + Gem n = 5 biologically independent animals). […] P-values determined by Welchs t-test. […] Quantification of red birefringent (mature) collagen fibers from human PDXs at end point after 3 cycles of treatment, treated as indicated. […] P values determined by Welchs t-test. g. […]

[2] = 50 nM gemcitabine, 48 hours, per replicate
[3] = 50 nM gemcitabine, 48 hours, vs GAPDH, per replicate
[4] = 48 hour treatment, 30 M PXS-5505, replicates
[5] = 48 hour treatment, PXS-5505, replicates
[6] = 48 hour treatment, PXS-5505, vs GAPDH, replicates

Nc1ccn([C@@H]2O[C@H](CO)[C@@H](O)C2(F)F)c(=O)n1 [Gem, gemcitabine]
expression of lysyl oxidase family members ([1]; 50 nM gemcitabine for 48 hours): increased | LOX ΔΔCt CC [1, 2]: 1.655 and 2.327 and 2.145 | LOXL1 ΔΔCt CC [1, 2]: 1.866 and 1.895 and 1.813 | LOXL2 ΔΔCt CC [1, 2]: 2.3261 and 2.2233 and 1.33 | LOXL3 ΔΔCt CC [1, 2]: 1.66 and 2.86 and 2.05 | LOXL4 ΔΔCt CC [1, 2]: 2.014 and 1.617 and 1.18 | LOX ΔCt [1, 3]: 6.157 and 5.668 and 5.782 | LOXL1 ΔCt [1, 3]: 8.043 and 8.021 and 8.085 | LOXL2 ΔCt [1, 3]: 4.354 and 4.419 and 5.16 | LOXL3 ΔCt [1, 3]: 4.977 and 5.26 and 5.74 | LOXL4 ΔCt [1, 3]: 6.2696 and 6.5867 and 7.04 | FITC-dextran (10 kDa) signal quantification (TKCC10 human PDX tumors): 94281 and 105741 and 104921 and 268246 and 141904 and 94336 and 85811 and 123546 and 103971 and 163288 and 111668 and 293663 and 289768 and 460793 and 155579 and 95059 and 92172 and 111389 and 85819 and 99312 | FITC-dextran signal (tumor perfusion) (TKCC10 human PDX tumors; TKCC10 model): significantly reduced FITC signal

Cl.Cl.NC/C=C(\F)CS(=O)(=O)c1cccc2cccnc12.O [PXS-5505, (Z)-3-fluoro-4-(quinolin-8-ylsulfonyl)but-2-en-1-amine dihydrochloride monohydrate]
qRT-PCR LOXL1 (Ct) [1, 4]: 27.9242 and 27.0668 | qRT-PCR LOXL2 (Ct) [1, 4]: 25.5976 and 25.3053 and 25.9273 | qRT-PCR LOXL3 (Ct) [1, 4]: 27.0409 and 26.0554 and 26.3059 | qRT-PCR LOXL4 (Ct) [1, 4]: 27.6755 and 27.1763 and 27.4097 | qRT-PCR LOX (Ct) [1, 5]: 27.9362 and 27.041 and 26.9697 | qRT-PCR LOX ΔΔCt KPC CAF [1, 5]: 0.4495 and 1.003 and 0.5566 | qRT-PCR LOXL1 ΔΔCt KPC CAF [1, 5]: 0.5108 and 0.4889 and 0.4223 | qRT-PCR LOXL2 ΔΔCt KPC CAF [1, 5]: 0.6912 and 0.4472 and 0.4586 | qRT-PCR LOXL3 ΔΔCt KPC CAF [1, 5]: 0.6435 and 0.6732 and 0.893 | qRT-PCR LOXL4 ΔΔCt KPC CAF [1, 5]: 1.222 and 0.9127 and 1.225 | qRT-PCR LOX ΔCt [1, 6]: 9.054 and 7.896 and 8.745 | qRT-PCR LOXL1 ΔCt [1, 6]: 8.779 and 8.842 | qRT-PCR LOXL2 ΔCt [1, 6]: 6.453 and 7.081 and 7.045 | qRT-PCR LOXL3 ΔCt [1, 6]: 7.896 and 7.831 and 7.423 | qRT-PCR LOXL4 ΔCt [1, 6]: 8.531 and 8.952 and 8.527 | transcription of lysyl oxidase family members ([1]; PXS-5505 up to 300 µM): does not significantly alter transcription | FITC-dextran (10 kDa) signal quantification (TKCC10 human PDX tumors): 217149 and 705678 and 861620 and 155219 and 311738 and 1148786 and 651132 and 524503 and 645010 and 362873 and 336536 and 501004 and 447832 and 108773 and 210759 and 520769 and 406359 and 125675 and 423935 and 547504
